Laboratory results as given in ChEMBL document CHEMBL1201862, “PubChem BioAssay data set” (2004).
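Method: 48-hour compound exposure of cells in 96-well plates, five concentrations, linear interpolation of endpoints. GI50 = concentration required for 50% inhibition of growth.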 Calls of active or inactive are those of the source. No stated cut-off is given here; in the data, active = GI50 up to about 1.1 µM and inactive = higher.

How the values were obtained:
Assay in all cases: growth of human tumour cells (NCI), 48 h
K562 = test system: K562
OVCAR-8 = test system: OVCAR-8
SK-MEL-2 = test system: SK-MEL-2
TK-10 = test system: TK-10
COLO 205 = test system: COLO 205
SN12C = test system: SN12C
786-0 = test system: 786-0
NCI-H23 = test system: NCI-H23
KM12 = test system: KM12
RXF 393 = test system: RXF 393
SF-539 = test system: SF-539
HT-29 = test system: HT-29
CCRF-CEM = test system: CCRF-CEM
OVCAR-5 = test system: OVCAR-5
NCI-H460 = test system: NCI-H460
SK-MEL-28 = test system: SK-MEL-28

Measured: GI50

COc1ccc(OC)c(NC(=O)CCC/C(CC(=O)c2ccc(O)c(OC)c2)=N\Nc2ccc([N+](=O)[O-])cc2)c1
inactive: K562 30.1 µM | OVCAR-8 28.2 µM | SK-MEL-2 51.8 µM | TK-10 50.2 µM | COLO 205 > 100 µM | SN12C > 100 µM | 786-0 27.6 µM | NCI-H23 48.1 µM | KM12 94.6 µM | RXF 393 19 µM | SF-539 57.7 µM | HT-29 > 100 µM | CCRF-CEM 68.2 µM | OVCAR-5 > 100 µM | NCI-H460 > 100 µM

CC(=O)NC(CCCCNC(=O)NCCCl)C(=O)NCc1ccccc1 (stereo not given)
inactive: K562 > 100 µM | OVCAR-8 > 100 µM | SK-MEL-2 > 100 µM | TK-10 > 100 µM | COLO 205 > 100 µM | SN12C > 100 µM | 786-0 > 100 µM | NCI-H23 > 100 µM | SK-MEL-28 > 100 µM | KM12 > 100 µM | RXF 393 > 100 µM | SF-539 > 100 µM | HT-29 > 100 µM | CCRF-CEM > 100 µM | NCI-H460 > 100 µM

O=C1c2ccccc2N2OC3(N4CCOCC4)CCCC3C12c1ccccc1 (stereo not given)
inactive: K562 > 100 µM | OVCAR-8 > 100 µM | COLO 205 > 100 µM | SN12C > 100 µM | 786-0 > 100 µM | NCI-H23 > 100 µM | SK-MEL-28 > 100 µM | RXF 393 49.2 µM | SF-539 > 100 µM | HT-29 > 100 µM | CCRF-CEM > 100 µM

Clc1cccc(C2SCc3nc4ccccc4n32)c1 (stereo not given)
inactive: K562 14.9 µM | OVCAR-8 24.8 µM | TK-10 25.6 µM | COLO 205 4.79 µM | SN12C 13.8 µM | 786-0 > 10 µM | NCI-H23 18.3 µM | SK-MEL-28 19.1 µM | KM12 18.8 µM | RXF 393 15 µM | SF-539 21.1 µM | HT-29 23.7 µM | CCRF-CEM 27.4 µM | OVCAR-5 15 µM | NCI-H460 27.8 µM

O=C(Nc1ccc(Br)cc1)C(=O)C(C(=O)c1ccc(Cl)c(Cl)c1)C1OC(=O)c2ccccc21 (stereo not given)
inactive: K562 12.5 µM | OVCAR-8 12.3 µM | TK-10 20.2 µM | COLO 205 16.4 µM | SN12C 20.2 µM | 786-0 15 µM | NCI-H23 13.9 µM | SK-MEL-28 13.7 µM | KM12 16.6 µM | RXF 393 3.5 µM | HT-29 21.3 µM | CCRF-CEM 10 µM | OVCAR-5 17.3 µM | NCI-H460 15.1 µM

COC(=O)/C=C(C)/C=C/C1OC(C)OCC1O (stereo not given)
inactive: K562 > 100 µM | OVCAR-8 > 100 µM | TK-10 > 100 µM | COLO 205 > 100 µM | SN12C > 100 µM | 786-0 > 100 µM | NCI-H23 > 100 µM | KM12 > 100 µM | SF-539 > 100 µM | HT-29 > 100 µM | CCRF-CEM > 100 µM | OVCAR-5 > 100 µM | NCI-H460 > 100 µM

COC(=O)C(=O)C(C(=O)C(=O)Nc1cc([N+](=O)[O-])ccc1[N+](=O)[O-])c1nc2ccc(C(=O)c3ccccc3)cc2nc1O (stereo not given)
inactive: K562 21.3 µM | OVCAR-8 26.9 µM | SK-MEL-2 37.2 µM | COLO 205 32.6 µM | SN12C 44.2 µM | 786-0 95.3 µM | NCI-H23 25.2 µM | KM12 28.9 µM | SF-539 35.2 µM | HT-29 34 µM | CCRF-CEM 25.2 µM | OVCAR-5 20.7 µM | NCI-H460 35.4 µM

Nc1nc2c(ncn2Cc2ccccc2CCO)c(=O)[nH]1
inactive: K562 > 100 µM | OVCAR-8 > 100 µM | SK-MEL-2 > 100 µM | TK-10 > 100 µM | COLO 205 > 100 µM | SN12C > 100 µM | 786-0 > 100 µM | NCI-H23 > 100 µM | SK-MEL-28 > 100 µM | KM12 > 100 µM | RXF 393 > 100 µM | HT-29 > 100 µM | CCRF-CEM > 100 µM | OVCAR-5 > 100 µM | NCI-H460 > 100 µM

Oc1nc2cc(Cl)ccc2nc1/C(=N\Nc1ccccc1)C(O)c1ccc(Cl)c(Cl)c1 (stereo not given)
inactive: K562 > 100 µM | OVCAR-8 > 100 µM | SK-MEL-2 > 100 µM | TK-10 > 100 µM | COLO 205 > 100 µM | SN12C 36.7 µM | 786-0 > 100 µM | NCI-H23 > 100 µM | KM12 > 100 µM | RXF 393 > 100 µM | SF-539 > 100 µM | HT-29 > 100 µM | CCRF-CEM > 100 µM | OVCAR-5 > 100 µM | NCI-H460 > 100 µM

Cc1csc2nc(-c3ccncc3)cn12
inactive: K562 > 44 µM | OVCAR-8 > 100 µM | SK-MEL-2 > 100 µM | TK-10 > 100 µM | COLO 205 > 45.5 µM | SN12C > 100 µM | 786-0 15.8 µM | NCI-H23 > 100 µM | SK-MEL-28 > 100 µM | KM12 > 100 µM | SF-539 > 44 µM | HT-29 > 100 µM | CCRF-CEM > 42.1 µM | OVCAR-5 > 100 µM | NCI-H460 > 43.5 µM

O=C1NC(c2ccc(O)cc2)C2CCC1C2 (stereo not given)
inactive: K562 > 100 µM | OVCAR-8 > 100 µM | SK-MEL-2 > 100 µM | TK-10 > 100 µM | COLO 205 > 100 µM | SN12C > 100 µM | 786-0 > 100 µM | NCI-H23 > 100 µM | SK-MEL-28 > 100 µM | KM12 > 100 µM | HT-29 > 100 µM | CCRF-CEM > 100 µM | OVCAR-5 > 100 µM | NCI-H460 > 100 µM

Cc1ccc(SC(C)/C=C/NNC2=NN=C(c3ccccc3)C(c3ccccc3)N2)cc1 (stereo not given)
inactive: K562 36.9 µM | OVCAR-8 31.7 µM | SK-MEL-2 23.4 µM | TK-10 75.7 µM | COLO 205 36.1 µM | SN12C 36.4 µM | 786-0 39.6 µM | NCI-H23 48.9 µM | SK-MEL-28 76.4 µM | KM12 27.5 µM | SF-539 34.2 µM | HT-29 13.3 µM | CCRF-CEM 21.5 µM | OVCAR-5 21.5 µM | NCI-H460 33.1 µM

COC(=O)/C(=N/NC(C)(C)C)C(C(=O)C=C(C)C)C(=O)C(=O)Nc1ccc(Cl)cc1C (stereo not given)
inactive: K562 > 100 µM | OVCAR-8 > 100 µM | SK-MEL-2 > 100 µM | TK-10 > 100 µM | COLO 205 > 100 µM | SN12C > 100 µM | 786-0 > 100 µM | NCI-H23 > 100 µM | SK-MEL-28 > 100 µM | KM12 > 100 µM | SF-539 > 100 µM | HT-29 > 100 µM | CCRF-CEM > 100 µM | OVCAR-5 > 100 µM | NCI-H460 > 100 µM

COc1ccc(C2Oc3c(c(O)cc4c3[C@H](c3ccc(O)cc3O)[C@H](O)C(c3ccc(O)c(O)c3)O4)C[C@@H]2O)cc1O (stereo not given in full)
inactive: K562 > 100 µM | OVCAR-8 > 100 µM | SK-MEL-2 > 100 µM | TK-10 > 100 µM | COLO 205 > 100 µM | SN12C > 100 µM | 786-0 > 100 µM | NCI-H23 > 100 µM | KM12 > 100 µM | RXF 393 > 100 µM | SF-539 > 100 µM | HT-29 > 100 µM | CCRF-CEM > 100 µM | OVCAR-5 > 100 µM | NCI-H460 > 100 µM
